Consider 14 compounds from US10202334B2, “Pendant amines and derivatives as inhibitors of leukotriene A4 hydrolase” (Celtaxsys, Inc., priority 2016, dated 2019).

Like-named read-outs stand apart in the source and are kept apart here.

Experiment [1] has as its target T1, LTA4 hydrolase peptidase activity (Homo sapiens, UniProt P09960).
T1 sequence (P09960 1-611): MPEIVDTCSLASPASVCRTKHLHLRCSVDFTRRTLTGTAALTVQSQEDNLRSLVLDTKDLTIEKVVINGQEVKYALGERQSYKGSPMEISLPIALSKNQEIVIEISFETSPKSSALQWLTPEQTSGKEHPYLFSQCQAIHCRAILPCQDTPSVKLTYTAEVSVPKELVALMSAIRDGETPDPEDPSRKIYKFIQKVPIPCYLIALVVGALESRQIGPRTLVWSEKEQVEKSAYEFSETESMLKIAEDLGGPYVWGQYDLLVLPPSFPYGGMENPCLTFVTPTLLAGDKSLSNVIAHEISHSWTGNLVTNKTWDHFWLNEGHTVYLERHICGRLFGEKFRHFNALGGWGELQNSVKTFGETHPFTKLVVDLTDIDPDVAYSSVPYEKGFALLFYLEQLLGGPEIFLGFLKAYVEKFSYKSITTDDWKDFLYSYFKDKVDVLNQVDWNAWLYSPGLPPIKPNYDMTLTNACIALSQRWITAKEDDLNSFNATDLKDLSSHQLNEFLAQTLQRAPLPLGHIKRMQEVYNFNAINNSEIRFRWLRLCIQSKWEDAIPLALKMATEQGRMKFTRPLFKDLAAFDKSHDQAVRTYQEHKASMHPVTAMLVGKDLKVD
The experiment is described as follows: Peptidase assay (hydrolysis of L-alanine-p-nitroanilide). The class given is biochemical. The method, then: Inhibition of peptidase activity was measured for the compounds of the invention by using methods similar to those described in Kull, F. et al., The Journal of Biological Chemistry 1999, 274 (49): 34683-34690.
In brief, the enzyme (29 nM) was incubated with L-alanine-p-nitroanilide (1 mM) in 50 mM HEPES (pH 7.5), 100 mM KCL, 1% DMSO in the absence or presence of a compound of the invention for 1 hour at ambient temperature. Reaction was terminated by addition of acetic acid (1%). Formation of colored nitro-aniline was measured by the increase in absorbance at 405 nm in a Victor 2 plate reader (Wallac). Spontaneous hydrolysis of the substrate was corrected for by subtracting the absorbance of control incubations without enzyme.

Experiment [2] relates to production of LTB4 in whole blood. Put plainly: Human whole blood assay (LTB4 release upon calcium ionophore, ELISA). The class given is cell-based. As for the experimental part:
Compounds of the invention were tested for their ability as inhibitors of LTA4 hydrolase in a whole blood assay using human, mouse, rat or dog whole blood in a manner similar to that described in Penning, T. D. et al., J. Med. Chem. (2000), 43(4): 721-735. In this assay, compounds were tested for their ability to inhibit LTB4 release upon stimulation with calcium ionophore. The LTB4 levels in supernatants were measured by ELISA.

The target in experiment [3] is T2, recombinant human LTA4 hydrolase (Homo sapiens, UniProt P09960).
T2 sequence (P09960 1-611): T1 sequence (P09960 1-611)
The experiment is described as follows: LTA4 hydrolase homogeneous time resolved fluorescence (HTRF) assay. In kind it is biochemical. As for the experimental part:
Compounds of the invention were tested in the LTA4 hydrolase homogeneous time resolved fluorescence (HTRF) assay to determine their ability to inhibit the hydrolysis of LTA4 to LTB4. The assay analyzes the amount of LTB4 produced.
LTA4 HTRF assay is a two-step assay involving enzymatic conversion of LTA4 to LTB4, and subsequent quantification of LTB4, product with HTRF assay.
The enzymatic conversion of LTA4 to LTB4 was performed in 384-well plates at ambient temperature in a reaction mixture containing 50 mM HEPES (pH 7.5), 0.5% BSA (fatty acid free), 18 nM recombinant human LTA4 hydrolase, 150 nM LTA4, 1% DMSO in the absence or presence of a compound of the invention. Reaction was stopped after 10 minutes incubation by diluting the incubation mixture 10-fold in 50 mM phosphate, 0.1% casein buffer (pH 7.0).
LTB4 formed was quantified with the HTRF assay in which free LTB4 competes with LTB4-XL665 conjugate (acceptor) for anti-LTB4 monoclonal antibody labeled with Europium cryptate (donor), thereby inhibiting the fluorescence energy transfer.
The LTB4 HTRF 384-well assay was carried out by incubating LTB4 samples or standards with LTB4-XL665 conjugate (7.5 ng/well) and anti-LTB4 monoclonal antibody-Europium cryptate conjugate (0.5 ng/well) in 50 mM phosphate, 0.4 M KF and 0.1% casein, buffer (pH 7.0) for two hours at ambient temperature. Plates were read in a RubyStar plate reader (BmG Labtechnologies Inc., NC) simultaneously at 620 nm and 665 nm to obtain signal ratios of 665 nm/620 nm. Results of energy transfer were expressed as delta F (%) which equaled [(signal ratio of sample-signal ratio of negative control)/(signal ratio of negative control)]×100%. Negative controls were control samples without LTB4 or LTB4-XL665.
Sample LTB4 concentrations were calculated from the LTB4 standard curve using the 4-parameter fit equation. For determination IC50 values for a particular compound of the invention, eight serially diluted compound concentrations (at 1:3.16 dilution) were used in this assay. Controls without a compound of the invention or with a reference compound were run parallel in the same assay plate.
On the technique in general: TR-FRET usually uses a lanthanide donor and a delayed reading to cut background.

Setting [4] is: read-out: inhibit peptidase activity, IC50 value.
The mark [5] stands for this setting: Homo sapiens, whole blood, read-out: inhibit production of LTB4 in whole blood, IC50 value.
Setting [6] is: Table 1, human whole blood, read-out: Human Whole Blood IC50.
Setting [7] is: read-out: inhibit LTA4 hydrolase activity, IC50 value.
Setting [8] is: Table 1, read-out: Peptidase IC50.
Setting [9] is: Table 1, read-out: Hydrolase IC50.

Usually IC50 stands for the concentration needed to halve the response being measured. Turning to `COC(=O)CCC(=O)NCC(N)CCC(=O)Nc1ccc(Oc2ccccc2)cc1` (stereo in doubt) [Example 6, methyl 3-{[(2R)-2-amino-4-[(4-phenoxyphenyl)carbamoyl]butyl]carbamoyl}propanoate], the IC50 in experiment [1] (setting [4]) is 215 nM; in experiment [2] (setting [5]), 252 nM; in experiment [2] (setting [6]) it was 252 nM.

Take `NC(CCC(=O)NCCN1CCCC1)C(=O)Nc1ccc(Oc2ccc(-n3cccc3)cc2)cc1` (stereo in doubt) [Example 7, (2R)-2-amino-N-{4-[4-(1H-pyrrol-1-yl)phenoxy]phenyl}-N′-[2-(pyrrolidin-1-yl)ethyl]pentanediamide]: the IC50 in experiment [1] (setting [4]) worked out at 25 nM; in experiment [2] (setting [5]), 138 nM; in experiment [2] (setting [6]), 138 nM; in experiment [3] (setting [7]), 38 nM.

Take `N[C@@H](CCC(=O)Nc1ccc(OCc2ccccc2)cc1)C(=O)NCc1ccccc1` [(2S)-2-amino-N-benzyl-N′-[4-(benzyloxy)phenyl]pentanediamide]: the values for the half-inhibitory concentration (IC50) in experiment [1] (setting [8]) and in experiment [3] (setting [9]) were 118 nM and 107 nM, respectively.

On to `CNC(=O)C(N)CCC(=O)Nc1ccc(OCc2ccccc2)cc1` (centres unmarked) [Example 1, 2-amino-N5-(4-(benzyloxy)phenyl)-N1-methylpentanediamide], for which the IC50 was found to be 24 nM in experiment [1] (setting [4]), 117 nM in experiment [2] (setting [5]), 117 nM in experiment [2] (setting [6]) and 27 nM in experiment [3] (setting [7]).

Turning to `NC(=O)C(N)CCC(=O)Nc1ccc(Oc2ccccc2)cc1` (centres unmarked) [Example 2, 4-amino-N1-(4-phenoxyphenyl)pentanediamide], the IC50 was determined as 22 nM in experiment [1] (setting [4]), 143 nM in experiment [2] (setting [5]), 143 nM in experiment [2] (setting [6]) and 84 nM in experiment [3] (setting [7]).

Consider `NC(CCC(=O)Nc1ccc(Oc2ccccc2)cc1)C(=O)NCCCl` (centres unmarked) [Example 3, 2-amino-N^1-(2-chloroethyl)-N^5-(4-phenoxyphenyl)pentanediamide], for which the 50% inhibitory concentration (IC50) in experiment [1] (setting [4]) amounted to 24 nM; in experiment [2] (setting [5]) it was 83 nM; in experiment [2] (setting [6]), 83 nM; in experiment [3] (setting [7]) it was 58 nM.

Regarding `COC(=O)[C@@H](N)CCC(=O)Nc1ccc(Oc2ccc(-n3cccc3)cc2)cc1` [Example 4, methyl N^5-(4-(4-(1H-pyrrol-1-yl)phenoxy)phenyl)glutaminate], the IC50 in experiment [1] (setting [4]) is 21 nM; in experiment [2] (setting [5]), 55 nM; in experiment [2] (setting [6]), 55 nM; in experiment [3] (setting [7]), 17 nM.

Turning to `N[C@H](CCC(=O)Nc1ccc(Oc2ccc(-n3cccc3)cc2)cc1)C(=O)NCCc1cnc[nH]1` [Example 9, (2R)-2-amino-N-[2-(1H-imidazol-5-yl)ethyl]-N′-{4-[4-(1H-pyrrol-1-yl)phenoxy]phenyl}pentanediamide], the 50% inhibitory concentration (IC50) came to 53 nM in experiment [1] (setting [4]), 664 nM in experiment [2] (setting [5]), 664 nM in experiment [2] (setting [6]) and 10 nM in experiment [3] (setting [7]).

In the case of `CCOC(=O)CCNC(=O)[C@H](N)CCC(=O)Nc1ccc(Oc2ccccc2)cc1` [Example 10, ethyl 3-[(2R)-2-amino-4-[(4-phenoxyphenyl)carbamoyl]butanamido]propanoate], the concentration for half-maximal inhibition (IC50) in experiment [1] (setting [4]) is 40 nM; in experiment [3] (setting [7]), 73 nM.

With `COC(=O)[C@@H](N)CCC(=O)Nc1ccc(OCC(O)c2ccccc2)cc1` (stereo partly drawn) [Example 11, methyl (2S)-2-amino-4-{[4-(2-hydroxy-2-phenylethoxy)phenyl]carbamoyl}butanoate], the IC50 in experiment [1] (setting [4]) came out at 21 nM; in experiment [2] (setting [5]), 113 nM; in experiment [2] (setting [6]) it was 113 nM.

Take `COC(=O)[C@@H](N)CCC(=O)Nc1ccc(Nc2ccccc2)cc1` [Example 12, methyl (2S)-2-amino-4-{[4-(phenylamino)phenyl]carbamoyl}butanoate]: the half-maximal inhibitory concentration (IC50) in experiment [1] (setting [4]) was determined as 213 nM; in experiment [2] (setting [5]) it was 184 nM; in experiment [2] (setting [6]), 184 nM.

In the case of `COC(=O)[C@@H](N)CCC(=O)Nc1ccc(OCC(=O)c2ccccc2)cc1` [methyl N5-(4-(2-oxo-2-phenylethoxy)phenyl)glutaminate], the concentration for half-maximal inhibition (IC50) in experiment [1] (setting [8]) amounted to 31 nM; in experiment [2] (setting [6]), 61 nM; in experiment [3] (setting [9]), 67 nM.

As to `CC(C)(C)OC(=O)[C@@H](N)CCC(=O)Nc1ccc(CCC(=O)c2ccccc2)cc1` [tert-butyl N5-(4-(3-oxo-3-phenylpropyl)phenyl)glutaminate], the figures for the IC50 in experiment [1] (setting [8]) and in experiment [2] (setting [6]) were 146 nM and 41 nM, respectively.

As to “(2S)-2-amino-N-[2-(pyridin-2-yl)ethyl]-N′-{4-[4-(1H-pyrrol-1-yl)phenoxy]phenyl}pentanediamide [Example 8]”, the IC50 in experiment [1] (setting [4]) stood at 32 nM; in experiment [2] (whole blood, read-out: inhibit production of LTB4 in whole blood, IC50 value) it was 264 nM.
